Source: patent US20250306008A1, “PHARMACEUTICAL COMPOSITION FOR TREATING OR PREVENTING MALIGNANT BREAST CANCER” (KOREA ADVANCED INSTITUTE OF SCIENCE AND TECHNOLOGY, priority 2021, published 2025)

Assays:
BT20 cells = assay: Tamoxifen drug response (Incucyte confluency) after BCL11A and HDAC1/2 inhibition; format: cell-based; conditions: tamoxifen 10 uM
Protocol: (§1) Briefly, it is as follows: Cells were plated in 1×10^4 cells (3 repetitions for each condition; triplicate), after 24 hours, the cells were treated with the tamoxifen drug (10 uM) and monitored by taking pictures at 3-hour intervals using Incucyte for 72 hours. After that, the confluency of the cells in the pictures was calculated and the sensitivity of the cells to various drugs was graphed.

MDA-MB231 cells = assay: as above; format: cell-based; conditions: tamoxifen 10 uM
Protocol: as §1

T47D cell line = assay: Tamoxifen drug response after BCL11A and HDAC1/2 overexpression; format: cell-based, human
From the text: The present inventors confirmed the tamoxifen drug response in human breast cancer cell lines T47D and MCF7 upon overexpression (OE) of BCL11A and HDAC1/2.

breast cancer patients = assay: Patients' drug response to tamoxifen according to BCL11A and HDAC1/2 expression; set-up: species or system human; conditions: patient group with low expression of BCL11A and HDAC1/2 compared to the group with high expression

Compound: CC/C(=C(\c1ccccc1)c1ccc(OCCN(C)C)cc1)c1ccccc1 [Tamoxifen, tamoxifen]
- sensitivity of control cells (shScrambled) to Tamoxifen (BT20 cells; BT20 control cells (shScrambled), 72 hours): did not show sensitivity
- sensitivity of control cells (shScrambled) to Tamoxifen (MDA-MB231 cells; MDA-MB231 control cells (shScrambled), 72 hours): did not show sensitivity
- sensitivity to tamoxifen of overexpressing cells (T47D cell line; T47D cells overexpressing BCL11A-OE, HDAC1/2-OE, or both): did not show sensitivity
- response of control cells to tamoxifen (T47D cell line; T47D control cells): responded
- sensitivity of patient group to the tamoxifen drug (breast cancer patients): higher sensitivity

Compound: shBCL11A: shRNA (GCATAGACGATGGCACTGTTA; SEQ ID NO: 1) designed to target the BCL11A gene, used as the BCL11A inhibitor
- sensitivity of treated cells to Tamoxifen (cell confluency) (BT20 cells; BT20, monitored 72 hours): some sensitivity
- sensitivity of treated cells to Tamoxifen (cell confluency) (MDA-MB231 cells; MDA-MB231, monitored 72 hours): some sensitivity
